The values below are quoted from earlier work in patent publication US20180353540A1, “Pharmaceutical composition for treating leukemia and preparation method thereof” (Yi Fan Pharmaceutical Academy (Beijing) Co., Ltd., priority 2015, published 2018).

One data set concerns ME180 cells. The settings on record: non-toxic dose 0.5 μg/ml.
For a further data set, the system named is HL-6 cells. The settings on record: non-toxic dose 0.5 μg/ml.
Data set [1] relates to SGC7901 human gastric adenocarcinoma cells.

With `CC1=C(/C=C/C(C)=C/C=C/C(C)=C/C(=O)O)C(C)(C)CCC1` [ATRA, all-trans retinoic acid], the “induced differentiation effect on ME180 cells” value in the data set with ME180 cells is given as “better induced differentiation effects”.
Consider `Cc1coc2c1C(=O)C(=O)c1c-2ccc2c1CCCC2(C)C` [tanshinone IIA], for which the “expression of c-myc and H-ras oncogenes (RNA dot blot hybridization)” value in the data set on ME180 cells (ME180 cell line) was “significantly reduced”. The “induced differentiation effect on ME180 cells” value with ME180 cells is “better induced differentiation effects”. Moreover, the “effect on HL-6 cells (differentiation, maturation, apoptosis)” value in the data set on HL-6 cells is “can induce differentiation and maturation of tumor cells, accompanied by apoptosis”. Besides, in data set [1], the “growth of SGC7901 human gastric adenocarcinoma cells in vitro” value was “significantly inhibits the growth”.
